Measured values: US9120796B2, “B-lactamase inhibitor picoline salt” (Cubist Pharmaceuticals, Inc., priority 2013, dated 2015)
Where a name gives a salt, the structure may show the parent alone.

Columns and labels:
[1] = Solution stability of salt forms (purity change relative to starting purity)
From the text: As part of the program to improve the process for the manufacture of the sodium salt of (2S,5R)-2-(1,3,4-oxadiazol-2-yl)-7-oxo-1,6-diazabicyclo[3.2.1]octan-6-yl hydrogen sulfate, a new intermediate capable of isolation and utility in the production was sought.
Additionally, the picoline salt precursor was examined for solution stability as an alternative hold point for the process.

[2] = Stability of isolated solid picoline salt at 2 weeks; format: physicochemical; conditions: FIG. 23
From the text: Also, the volume inefficiency, throughput bottlenecks, and impurity generation associated with the TBA to Na salt resin exchange process created the need for an improved step. Accordingly, there was a need for a stable solid that could be isolated, stored, and be used as needed to produce the desired sodium API in a reliable, scalable process. In screening different salt forms and examining the potential for crystallizations (as a means to isolate the salt forms), the TBA, pyridine, 5-ethyl-2-methylpyridine, and 2,6-lutidine forms of the API were not able to be successfully isolated in solid form.

[3] = Solubility characteristics of crystalline form; format: physicochemical; conditions: a particular (crystalline) form
From the text: The compound of Formula (II) is the 2-picoline salt of (2S,5R)-2-(1,3,4-oxadiazol-2-yl)-7-oxo-1,6-diazabicyclo[3.2.1]octan-6-yl hydrogen sulfate, i.e., 2-methylpyridin-1-ium (2S,5R)-2-(1,3,4-oxadiazol-2-yl)-7-oxo-1,6-diazabicyclo[3.2.1]octan-6-yl sulfate.

solution stability in dichloromethane solution ([1]; DCM, room temperature, compared with the TBA salt, FIGS. 22A and 22B)	stability in solution ([1]; in solution, early clinical productions)	stability of isolated solid [2]	solubility characteristics [3]	Molecule	solution stability in aqueous environments ([1]; aqueous solution, high dilution (~1 wt %), FIGS. 21A and 21B)
significantly inferior to the TBA salt	unstable in solution	found to be stable	low solubility	O=C1N2C[C@@H](CC[C@H]2c2nnco2)N1OS(=O)(=O)O [Formula (II), 2-methylpyridin-1-ium (2S,5R)-2-(1,3,4-oxadiazol-2-yl)-7-oxo-1,6-diazabicyclo[3.2.1]octan-6-yl sulfate]	
				tetrabutylammonium (2S,5R)-2-(1,3,4-oxadiazol-2-yl)-7-oxo-1,6-diazabicyclo[3.2.1]octan-6-yl sulfate [TBA salt, reference compound]	found to be a risk for long term scale-up
